A short description of data set [1]: Boiling temperature at pressure P. To be noted: 101.3 kPa; Liquid; Ebulliometric method (Recirculating still).
The nature of data set [2]: refractive index (Na D-line) (dimensionless). To be noted: 293.15 K; 101.33 kPa; Liquid; Standard Abbe refractometry.
The conditions of data set [3]: 298.15 K; 101.33 kPa; Liquid; Vibrating tube method.

Numbers after ± are expanded uncertainties.

On to `O` [water], for which the “Boiling temperature at pressure P” value in data set [1] is 100.10 ± 0.2 °C. Further, the refractive index in data set [2] is given as 1.3322 ± 0.0007.
With `Cc1ccccn1` [2-methylpyridine], the “Boiling temperature at pressure P” value in data set [1] worked out at 129.1 ± 0.2 °C. Also, the mass density in data set [3] came to 940.5 ± 0.1 kg/m3. Also, the refractive index in data set [2] worked out at 1.4985 ± 0.0007.
